Data as given in US9962350B2, “Agent for improving normal development rate of fertilized eggs” (SBI Pharmaceuticals Co., Ltd., priority 2014, dated 2018).

Tested on: C57BL/6J in vitro fertilized eggs
Assay: Low-temperature in vitro culture of in vitro fertilization-derived fertilized eggs in KSOM or mWM with ALA; embryo development
Assay type: cell-based, mouse
Protocol: 5 U (units) of equine chorionic gonadotropin (serum gonadotropin) (ASKA Pharmaceutical Co., Ltd.) were intraperitoneally administered to each female mouse of the C57BL/6J lineage (3.9 weeks old to 4.0 weeks old). […], 5 U (units) of gonadotropin (human chorionic gonadotropin) (ASKA Pharmaceutical Co., Ltd.) were intraperitoneally administered thereto for controlled ovarian hyperstimulation. 15 hours after the administration of gonadotropin, the oviducts were recovered by opening the abdomens. In mineral oil, the ampullae of the oviducts were incised with a dissecting needle, and the ova were recovered into a drop of mHTF medium (ARK Resource Co., Ltd.). Sperms were recovered from the cauda epididymides of C57BL/6J male mice and cultured in mHTF medium at 37° C. for 40 minutes to 1 hour under 5% CO2 conditions for capacitation. 2 μl to 4 μl of the mHTF medium containing the sperms was added to the medium drop containing the recovered ova for insemination, and cultured at 37° C. under 5% CO2 conditions. 4 hours to 6 hours after the insemination, the fertilized eggs were washed with KSOM (ARK Resource Co., Ltd.) or mWM (ARK Resource Co., Ltd.) to remove cumulus cells and sperms. The fertilized eggs were temporarily cultured in KSOM or mWM in an incubator of 37° C. and 5% CO2 until all of the fertilized eggs were recovered.
25 of the fertilized eggs per drop were transferred to a drop (covered with mineral oil (Sigma-Aldrich Corp.)) consisting of 100 μl of ALA-unsupplemented or ALA-supplemented (1 μM or 3 μM) medium (KSOM or mWM). Subsequently, the fertilized eggs were cultured under three conditions: a condition of 37° C. and 5% CO2, a condition of 35° C. and 5% CO2, and a condition of 35.5° C. and 5% CO2. The number of 2-cell eggs was counted 24 hours after the ovum recovery, and the number of blastocysts was counted 96 hours thereafter. Since the development of fertilized eggs obtained by in vitro fertilization is slightly slow, the number of blastocysts was also counted 120 hours after the ovum recovery. The development rate of embryos at each culture time was calculated on the basis of the number of 2-cell embryos 24 hours postfertilization defined as 100%. The results about KSOM are shown in Tables 14 and 15 and FIGS. 9 and 11. The results about mWM are shown in Tables 16 and 17 and FIGS. 10, 12, and 13.

NCC(=O)CCC(=O)O [ALA, 5-aminolevulinic acid]
The number of developed embryos in KSOM (35° C., 1 μM ALA, 24 hr): 61 | The number of developed embryos in KSOM (35° C., 1 μM ALA, 48 hr): 27 | development rate with the number of 2-cell embryos 24 hours postfertilization in KSOM defined as 100% (35° C., 1 μM ALA, 48 hr): 44% | The number of developed embryos in KSOM (35° C., 1 μM ALA, 72 hr): 26 | development rate with the number of 2-cell embryos 24 hours postfertilization in KSOM defined as 100% (35° C., 1 μM ALA, 72 hr): 43% | The number of developed embryos in KSOM (35° C., 1 μM ALA, 120 hr): 22 | development rate with the number of 2-cell embryos 24 hours postfertilization in KSOM defined as 100% (35° C., 1 μM ALA, 120 hr (blastocysts)): 36% | The number of developed embryos in mWM (35° C., 1 μM ALA, 24 hr): 51 | The number of developed embryos in mWM (35° C., 1 μM ALA, 48 hr): 55 | development rate with the number of 2-cell embryos 24 hours postfertilization in mWM defined as 100% (35° C., 1 μM ALA, 48 hr): 108% | The number of developed embryos in mWM (35° C., 1 μM ALA, 72 hr): 46 | development rate with the number of 2-cell embryos 24 hours postfertilization in mWM defined as 100% (35° C., 1 μM ALA, 72 hr): 90% | The number of developed embryos in mWM (35° C., 1 μM ALA, 96 hr): 29 | development rate with the number of 2-cell embryos 24 hours postfertilization in mWM defined as 100% (35° C., 1 μM ALA, 96 hr (blastocysts)): 53% | The number of developed embryos in KSOM (35° C., 3 μM ALA, 24 hr): 60 | The number of developed embryos in KSOM (35° C., 3 μM ALA, 48 hr): 29 | development rate with the number of 2-cell embryos 24 hours postfertilization in KSOM defined as 100% (35° C., 3 μM ALA, 48 hr): 48% | The number of developed embryos in KSOM (35° C., 3 μM ALA, 72 hr): 27 | development rate with the number of 2-cell embryos 24 hours postfertilization in KSOM defined as 100% (35° C., 3 μM ALA, 72 hr): 45% | The number of developed embryos in KSOM (35° C., 3 μM ALA, 120 hr): 16 | development rate with the number of 2-cell embryos 24 hours postfertilization in KSOM defined as 100% (35° C., 3 μM ALA, 120 hr (blastocysts)): 27% | The number of developed embryos in mWM (35° C., 3 μM ALA, 24 hr): 52 | The number of developed embryos in mWM (35° C., 3 μM ALA, 48 hr): 44 | development rate with the number of 2-cell embryos 24 hours postfertilization in mWM defined as 100% (35° C., 3 μM ALA, 48 hr): 85% | The number of developed embryos in mWM (35° C., 3 μM ALA, 72 hr): 27 | development rate with the number of 2-cell embryos 24 hours postfertilization in mWM defined as 100% (35° C., 3 μM ALA, 72 hr): 52% | The number of developed embryos in mWM (35° C., 3 μM ALA, 96 hr): 20 | development rate with the number of 2-cell embryos 24 hours postfertilization in mWM defined as 100% (35° C., 3 μM ALA, 96 hr (blastocysts)): 38% | The number of developed embryos in mWM (35.5° C., 1 μM ALA, 24 hr): 60 | The number of developed embryos in mWM (35.5° C., 1 μM ALA, 48 hr): 60 | development rate with the number of 2-cell embryos 24 hours postfertilization in mWM defined as 100% (35.5° C., 1 μM ALA, 48 hr): 100% | The number of developed embryos in mWM (35.5° C., 1 μM ALA, 72 hr): 49 | development rate with the number of 2-cell embryos 24 hours postfertilization in mWM defined as 100% (35.5° C., 1 μM ALA, 72 hr): 82% | The number of developed embryos in mWM (35.5° C., 1 μM ALA, 96 hr): 42 | development rate with the number of 2-cell embryos 24 hours postfertilization in mWM defined as 100% (35.5° C., 1 μM ALA, 96 hr (blastocysts)): 70% | The number of developed embryos in mWM (35.5° C., 3 μM ALA, 24 hr): 52 | The number of developed embryos in mWM (35.5° C., 3 μM ALA, 48 hr): 52 | development rate with the number of 2-cell embryos 24 hours postfertilization in mWM defined as 100% (35.5° C., 3 μM ALA, 48 hr): 100% | The number of developed embryos in mWM (35.5° C., 3 μM ALA, 72 hr): 46 | development rate with the number of 2-cell embryos 24 hours postfertilization in mWM defined as 100% (35.5° C., 3 μM ALA, 72 hr): 88% | The number of developed embryos in mWM (35.5° C., 3 μM ALA, 96 hr): 39 | development rate with the number of 2-cell embryos 24 hours postfertilization in mWM defined as 100% (35.5° C., 3 μM ALA, 96 hr (blastocysts)): 75%
